Like-named read-outs stand apart in the source and are kept apart here.
Experiments:
[1] = Tolerance, acute toxicity and efficacy in mice; conditions: preliminary mouse in vivo formulation experiments
[2] = target: T1, estrogen receptor (Homo sapiens, UniProt P03372); assay: Estrogen receptor competitive binding assay (3H-E2, MCF-7 cell lysate)
T1 construct: endogenous in cells; host or cells: MCF-7 cells (ATCC); 225,000 g supernatant of sonicated lysate

[3] = system: Rtx-6 cells; assay: Uptake and estradiol competition by flow cytometry; format: cell-based
Description: The uptake and release in Rtx-6 cells were also investigated. Rtx-6 cells were treated with DOX, DOXSF, or DOX-TEG-TAM as described above to determine both the uptake and the release of drug following a 1 h treatment. DOX-TEG-TAM was taken up to a greater extent than DOX (>3-fold) and DOXSF (>2-fold). The enhanced uptake relative to DOX and DOXSF could be attributed to the presence of ER and the lipophilicity of DOX-TEG-TAM. The uptake of DOX-TEG-TAM in Rtx-6 cells is perhaps best compared to the uptake in the parent MCF-7 cell line. DOX-TEG-TAM was taken up to a greater extent in MCF-7 cells (25 RFU) relative to Rtx-6 cells (14 RFU). One possible explanation for this difference is the presence of both AEBS and ER in MCF-7 cells versus only ER in Rtx-6 cells. […] No further inhibition occurs at higher concentrations, possibly because of non-specific binding of DOX-TEG-TAM at hydrophobic sites in Rtx-6 cells.
Uptake and release of DOX, DOXSF, and DOX-TEG-TAM: The uptake and release of DOX-TEG-TAM in breast cancer cells relative to DOX and untargeted DOXSF was performed as described with modifications. Breast cancer cells in log phase growth were dissociated with trypsin-EDTA, counted, resuspended in media at 1.5×10^5 cells/mL, and plated into six well plates (450,000 cells/well) and allowed to adhere overnight. The cells were treated with 0.5 μM DOX, DOXSF, or DOX-TEG-TAM for various amounts of time (20 min, 40 min, and 60 min). Drug treatment was accomplished by addition of 30 μL of 100× drug solution (50 μM) to 3 mL of media which was mixed and immediately added to the cells. For each time point, the media was removed, cells were trypsinized, and trypsinization was quenched with 3 mL phenol red-free RPMI 1640 media (no serum) at 4° C. Cells were pelleted by centrifugation at 300 g for 5 min at 10° C. The supernatant was decanted and the cells were re-suspended in 1 mL serum- and phenol red-free RPMI 1640 media and placed on ice.
The extent of drug uptake and retention was measured by flow cytometry. Cells were analyzed with excitation at 488 nm (15 mW Ar ion laser), with emission monitored between 570 and 600 nm. Instrument settings were optimized for each cell line and held constant for all experiments; 10,000 cells were analyzed for anthracycline fluorescence. The data are presented as the mean fluorescence for each condition with the background, drug-free cell fluorescence subtracted.
The cell samples were prepared and analyzed by flow cytometry as described above.

[4] = target: T2, AEBS (Homo sapiens, UniProt Q15125+Q9UBM7); assay: AEBS binding, competition with 3H-tamoxifen in MCF-7 cell lysate; conditions: 50 nM competitor
T2 construct: MCF-7 cells were utilized as the AEBS source; endogenous in cells; host or cells: MCF-7 cells

[5] = target: T3, ανβ3 integrin present on viable MDA-MB-435 cells (Homo sapiens, UniProt P05106+P06756); assay: Vitronectin cell adhesion (competition) assay; format: cell-based; conditions: MDA-MB-435 cell binding to vitronectin, 500 μM Mn2+; read-out: IC50 for inhibition of cell binding
T3 construct: endogenous in cells
Excerpt: The data are presented as the mean fluorescence for each condition with the background, drug-free cell fluorescence subtracted.

[6] = system: MDA-MB-435 cells; assay: Growth inhibition assay (Example 6); format: cell-based, human; conditions: read-out: IC50 for inhibition of cell growth (nM), treatment time
Description: […] Cells were quantified via measuring crystal violet staining or cellular metabolism of MTT. For every experiment, each condition was performed in hexuplicate; experiments were performed at least twice.
Cancer cell growth inhibition: acyclic-RGD-4C-DOXSF and cyclic-(N-Me-VRGDf-NH)-DOXSF were also assayed for their ability to inhibit growth of MDA-MB-435 cells relative to DOX and DOXSF. Cells treated in cell culture plates and non-treated (-control) cells were allowed to grow to near confluency, and then quantified via measuring crystal violet staining or cellular metabolism of MTT. […] Earlier control experiments established that the miniscule amounts of formaldehyde that would be released even from complete hydrolysis of the conjugate would contribute nothing to the observed growth inhibition. Conjugation of cytotoxic drugs to triggers and targeting groups often causes a drop in cytotoxicity.

[7] = Hydrolysis of anthracycline-formaldehyde N-Mannich bases followed by HPLC
Description: The area under the curve for the N-Mannich base was determined at each time point and was used to establish the kinetics of decomposition, using regression software. Hydrolysis of AOM-doxsaliform was carried out in pH 8.0 100 mM sodium phosphate buffer at 37° C. AOM-doxsaliform was dissolved in 48.0 μL DMSO and this solution was diluted into phosphate buffer to give 4.8 mL of an […] solution containing 1% DMSO. To this solution was added 6 μL of pig liver esterase (0.8 units/μL; Sigma; Milwaukee, Wis.) to achieve a final concentration of 1.0 units/mL. […] Brief centrifugation served to pellet the insoluble fraction. The drug solution was then transferred to a round bottom flask and concentrated by brief rotary-evaporation at 20° C. Reverse phase HPLC was used to analyze the extent of hydrolysis.
Hydrolysis of the N-Mannich bases, prepared from either doxorubicin or daunorubicin and the respective amides, at 37° C. in pH 7.4 triethylammonium acetate (TEAA) buffer (20 mM) containing 10-30% MeOH was monitored by reverse phase HPLC. […] Identification of a less robust construct that could be used to rapidly deliver the active Schiff base metabolite of doxorubicin to a growing tumor was undertaken.

SMILES | acute toxicity [1] | estrogen receptor binding affinity retained relative to targeting group alone [2] [%] | RBA^OHT ([2]; relative to E/Z-4-OHT = 100) | fold uptake greater than DOX ([3]; Rtx-6) [fold] | fold uptake greater than DOXSF ([3]; Rtx-6) [fold] | inhibition of uptake by estradiol ([3]; Rtx-6, 0.5 μM drug, 20 nM estradiol) [%] | drug uptake (DOX fluorophore) ([3]; Rtx-6, 1 h treatment) [RFU] | AEBS binding affinity relative to the targeting group ([4]; 0.05 nM 3H-tamoxifen) [%] | AEBS binding affinity relative to the targeting group ([4]; 0.5 nM 3H-tamoxifen) [%] | AEBS binding affinity relative to the targeting group ([4]; 5 nM 3H-tamoxifen) [%] | IC50 [5] [µM] | IC50 ([6]; Homo sapiens, MDA-MB-435, 20 min, 20 min treatment) [nM] | IC50 ([6]; Homo sapiens, MDA-MB-435, 1 h treatment) [nM] | IC50 ([6]; Homo sapiens, MDA-MB-435, 4 h treatment) [nM] | estimated pKa of the amino moiety [7] | storage stability of lyopholyzed salts ([7]; −20° C.) | decomposition of the free base on storage ([7]; −20° C., after 3 weeks) [%] | IC50 ([6]; 4 h treatment) [nM]
CC/C(=C(/c1ccc(O)cc1)c1ccc(OCCN(C)CCOCCOCCO/N=C/c2ccc(O)c(C(=O)NCN[C@H]3C[C@H](O[C@H]4C[C@](O)(C(=O)CO)Cc5c(O)c6c(c(O)c54)C(=O)c4c(OC)cccc4C6=O)O[C@@H](C)[C@H]3O)c2)cc1)c1ccccc1 [11c, E/Z-N-(2-Hydroxy-5-{[2-(2-{2-[(2-{4-[1-(4-hydroxy-phenyl)-2-phenyl-but-1-enyl]-phenoxy}-ethyl)-methyl-amino]-ethoxy}-ethoxy)-ethoxyimino]-methyl}-benzamide)-doxorubicin] | substantially less than that of doxoform | 2.5 | 2.5 | > 3 | > 2 | 70 | 14 | 70 | 72 | 48 |  |  |  |  |  |  |  | 
COc1cccc2c1C(=O)c1c(O)c3c(c(O)c1C2=O)C[C@@](O)(C(=O)CO)C[C@@H]3O[C@H]1C[C@H](N)[C@H](O)[C@H](C)O1 [doxorubicin, reference compound] |  |  |  |  |  |  |  |  |  |  | > 10 | 800 | 300 | 120 |  |  |  | 
COc1cccc2c1C(=O)c1c(O)c3c(c(O)c1C2=O)C[C@@](O)(C(=O)CO)C[C@@H]3O[C@H]1C[C@H](NCNC(=O)c2ccccc2O)[C@H](O)[C@H](C)O1 [doxsaliform, N-(2-Hydroxybenzamido-methyl)-doxorubicin] |  |  |  |  |  |  |  |  |  |  | > 10 |  |  |  | 3.0-3.5 | stable at −20 °C for periods of several months | ~20 | 50

— US20070275911A1, “Targeted Drug-Formaldehyde Conjugates and Methods of Making and Using the Same” (priority 2003, published 2007)
